According to patent US5391540A, “Substituted pyridine compounds” (Rohm and Haas Company, priority 1993, dated 1995):

Columns and labels:
Type in all cases: in vivo
Annual Bluegrass = test: Pre-emergent herbicidal activity (Table A); settings: pre-emergence, Anbg, 11.2 kg/ha, 10-14 days, read-out: herbicidal rating (% inhibition)
How it was run: (§1)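 Seeds were sown on compacted topsoil and covered with soil into which test compound (in acetone or water carrier) had been mixed at 11.2 kg/ha. Pans were kept watered on a greenhouse bench, and percent inhibition was scored as a rating about 10-14 days (usually 11) after treatment.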

Wild Buckwheat = test: Pre-emergent herbicidal activity (Table A); settings: Fallopia convolvulus, pre-emergence, Wibw, 11.2 kg/ha, 10-14 days, read-out: herbicidal rating (% inhibition)
How it was run: as §1

Indian Mustard = test: Pre-emergent herbicidal activity (Table A); settings: Brassica juncea, pre-emergence, Inmu, 11.2 kg/ha, 10-14 days, read-out: herbicidal rating (% inhibition)
How it was run: as §1

Seedling Johnsongrass = test: Pre-emergent herbicidal activity (Table A); settings: Sorghum halepense, pre-emergence, Sejg, 11.2 kg/ha, 10-14 days, read-out: herbicidal rating (% inhibition)
How it was run: as §1

Cocklebur [1] = test: Pre-emergent herbicidal activity (Table A); settings: Cobu, 11.2 kg/ha, 10-14 days; for inhibition at 11200 g/ha: Xanthium strumarium, pre-emergence, read-out: herbicidal rating (% inhibition)
How it was run: (§2)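 Seeds or perennial propagules set on compacted topsoil, then covered with soil mixed with a known amount of test compound applied in acetone or water carrier. Ratings assigned on a scale based on percent inhibition of each species.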

Morningglory [2] = test: Pre-emergent herbicidal activity (Table A); settings: Mogl, 11.2 kg/ha, 10-14 days; for inhibition at 11200 g/ha: Ipomoea, pre-emergence, read-out: herbicidal rating (% inhibition)
How it was run: as §2

Yellow Nutsedge [3] = test: Pre-emergent herbicidal activity (Table A); settings: Yens, 11.2 kg/ha, 10-14 days; for inhibition at 11200 g/ha: Cyperus, pre-emergence, read-out: herbicidal rating (% inhibition)
How it was run: as §2

Downy Brome [4] = test: Pre-emergent herbicidal activity (Table A); settings: Dobr, 11.2 kg/ha, 10-14 days; for inhibition at 11200 g/ha: Bromus tectorum, pre-emergence, read-out: herbicidal rating (% inhibition)
How it was run: as §2

Velvetleaf [5] = test: Pre-emergent herbicidal activity (Table A); settings: Vele, 11.2 kg/ha, 10-14 days; for inhibition at 11200 g/ha: Abutilon theophrasti, pre-emergence, read-out: herbicidal rating (% inhibition)
How it was run: as §2

Barnyardgrass [6] = test: Pre-emergent herbicidal activity (Table A); settings: Bygr, 11.2 kg/ha, 10-14 days; for inhibition at 11200 g/ha: Echinochloa crus-galli, pre-emergence, read-out: herbicidal rating (% inhibition)
How it was run: as §2

Common Lambsquarters [7] = test: Post-emergence herbicidal activity (Table C); settings: Colq, 11.2 kg/ha, 10-14 days
From the text: (§3) In the tests which follow, larger and more developed plants were used.
(§4) The post-emergent herbicidal activity index used in Table C is as follows:
(§5) Top soil was placed in pans having holes in the bottom and compacted to a depth of 0.95 to 1.27 cm. from the top of the pan. A predetermined number of seeds of each of several dicotyledonous and monocotyledonous annual plant species and/or vegetative propagules for the perennial plant species were placed on the soil and pressed into the soil surface. The seeds and/or vegetative propagules were covered with soil and leveled. The pans were then placed on a bench in the greenhouse and watered as needed for germination and growth. After the plants reached the desired age (two to three weeks), each pan (except the control pans) was moved to a spraying chamber and sprayed by means of an atomizer. […] The plant identifying codes in Table C are the same as above defined.

Barnyardgrass [8] = test: Post-emergence herbicidal activity (Table C); settings: Bygr, 11.2 kg/ha, 10-14 days
From the text: as §3, §4, §5

Cocklebur [9] = test: Post-emergence herbicidal activity (Table C); settings: Cobu, 11.2 kg/ha, 10-14 days
From the text: (§6) The post-emergent activity is best seen on younger plants treated at the 11/2 to 2 leaf stage. In the tests which follow, larger and more developed plants were used.
as §4
as §5, with “atomizer. The spray solution or suspension contained about 0.4% by volume of an emulsifying agent and a sufficient amount of the candidate chemical to give an application rate of the active ingredient of 11.2 kg/ha while applying a total amount of solution or suspension equivalent to 1870 L/ha.” for “atomizer.”

Pennsylvania Smartweed [10] = test: Post-emergence herbicidal activity (Table C); settings: Pesw, 11.2 kg/ha, 10-14 days
From the text: as §6, §4
as §5, with “atomizer. The spray solution or suspension contained about 0.4% by volume of an emulsifying agent and a sufficient amount of the candidate chemical to give an application rate of the active ingredient of 11.2 kg/ha while applying a total amount of solution or suspension equivalent to 1870 L/ha.” for “atomizer.”

Rhizome Johnsongrass [11] = test: Post-emergence herbicidal activity (Table C); settings: Rhjg, 11.2 kg/ha, 10-14 days
From the text: as §6, §4
as §5, with “atomizer. The spray solution or suspension contained about 0.4% by volume of an emulsifying agent and a sufficient amount of the candidate chemical to give an application rate of the active ingredient of 11.2 kg/ha while applying a total amount of solution or suspension equivalent to 1870 L/ha.” for “atomizer.”

Morningglory [12] = test: Post-emergence herbicidal activity (Table C); settings: Mogl, 11.2 kg/ha, 10-14 days
From the text: as §6, §4
as §5, with “atomizer. The spray solution or suspension contained about 0.4% by volume of an emulsifying agent and a sufficient amount of the candidate chemical to give an application rate of the active ingredient of 11.2 kg/ha while applying a total amount of solution or suspension equivalent to 1870 L/ha.” for “atomizer.”

Yellow Nutsedge [13] = test: Post-emergence herbicidal activity (Table C); settings: Yens, 11.2 kg/ha, 10-14 days
From the text: as §6, §4
as §5, with “atomizer. The spray solution or suspension contained about 0.4% by volume of an emulsifying agent and a sufficient amount of the candidate chemical to give an application rate of the active ingredient of 11.2 kg/ha while applying a total amount of solution or suspension equivalent to 1870 L/ha.” for “atomizer.”

Downy Brome [14] = test: Post-emergence herbicidal activity (Table C); settings: Dobr, 11.2 kg/ha, 10-14 days
From the text: as §6, §4
as §5, with “atomizer. The spray solution or suspension contained about 0.4% by volume of an emulsifying agent and a sufficient amount of the candidate chemical to give an application rate of the active ingredient of 11.2 kg/ha while applying a total amount of solution or suspension equivalent to 1870 L/ha.” for “atomizer.”

Velvetleaf [15] = test: Post-emergence herbicidal activity (Table C); settings: Vele, 11.2 kg/ha, 10-14 days
From the text: as §6, §4
as §5, with “atomizer. The spray solution or suspension contained about 0.4% by volume of an emulsifying agent and a sufficient amount of the candidate chemical to give an application rate of the active ingredient of 11.2 kg/ha while applying a total amount of solution or suspension equivalent to 1870 L/ha.” for “atomizer.”

Canada thistle [16] = test: Post-emergence herbicidal activity (Table C); settings: Cath, 11.2 kg/ha, 10-14 days
From the text: as §6, §4
as §5, with “atomizer. The spray solution or suspension contained about 0.4% by volume of an emulsifying agent and a sufficient amount of the candidate chemical to give an application rate of the active ingredient of 11.2 kg/ha while applying a total amount of solution or suspension equivalent to 1870 L/ha.” for “atomizer.”

Quackgrass [17] = test: Post-emergence herbicidal activity (Table C); settings: Rhqg, 11.2 kg/ha, 10-14 days
From the text: as §6, §4
as §5, with “atomizer. The spray solution or suspension contained about 0.4% by volume of an emulsifying agent and a sufficient amount of the candidate chemical to give an application rate of the active ingredient of 11.2 kg/ha while applying a total amount of solution or suspension equivalent to 1870 L/ha.” for “atomizer.”

Pennsylvania Smartweed [18] = test: Pre-emergent herbicidal activity (Table A); settings: Pesw, 11.2 kg/ha, 10-14 days
How it was run: as §2

Rhizome Johnsongrass [19] = test: Pre-emergent herbicidal activity (Table A); settings: Rhjg, 11.2 kg/ha, 10-14 days
How it was run: as §2

Canada thistle [20] = test: Pre-emergent herbicidal activity (Table A); settings: Cath, 11.2 kg/ha, 10-14 days
How it was run: as §2

Common Lambsquarters [21] = test: Pre-emergent herbicidal activity (Table A); settings: Colq, 11.2 kg/ha, 10-14 days
How it was run: as §2

Quackgrass [22] = test: Pre-emergent herbicidal activity (Table A); settings: Rhqg, 11.2 kg/ha, 10-14 days
How it was run: as §2

COC(=O)c1c(OC)nc(C(F)(F)F)c(C2SCCCS2)c1CC(C)C [Compound 94, 3-pyridinecarboxylic acid, 5-(1,3-dithian-2-yl)-2-methoxy-4-(2-methylpropyl)-6-(trifluoromethyl)-, methyl ester]
inhibition at 11200 g/ha (Annual Bluegrass): 75 to 100% | inhibition at 11200 g/ha (Wild Buckwheat): 75 to 100% | inhibition at 11200 g/ha (Indian Mustard): 75 to 100% | inhibition at 11200 g/ha (Seedling Johnsongrass): 75 to 100% | inhibition at 11200 g/ha (Cocklebur [1]): 25 to 49% | inhibition at 11200 g/ha (Morningglory [2]): 75 to 100% | inhibition at 11200 g/ha (Yellow Nutsedge [3]): 0 to 24% | inhibition at 11200 g/ha (Downy Brome [4]): 50 to 74% | inhibition at 11200 g/ha (Velvetleaf [5]): 75 to 100% | inhibition at 11200 g/ha (Barnyardgrass [6]): 75 to 100%

3-pyridinecarboxylic acid, 5-(aminocarbonyl)-1,2,3,4-tetrahydro-4-(2-methylpropyl)-6-(pentafluoroethyl)-, ethyl ester [Compound 10]
post-emergent herbicidal activity index (Common Lambsquarters [7]): 0 (0-24% inhibition) | post-emergent herbicidal activity index (Barnyardgrass [8]): 0 (0-24% inhibition) | post-emergent herbicidal activity index (Cocklebur [9]): 0 (0-24% inhibition) | post-emergent herbicidal activity index (Pennsylvania Smartweed [10]): 0 (0-24% inhibition) | post-emergent herbicidal activity index (Rhizome Johnsongrass [11]): 0 (0-24% inhibition) | post-emergent herbicidal activity index (Morningglory [12]): 0 (0-24% inhibition) | post-emergent herbicidal activity index (Yellow Nutsedge [13]): 0 (0-24% inhibition) | post-emergent herbicidal activity index (Downy Brome [14]): 0 (0-24% inhibition) | post-emergent herbicidal activity index (Velvetleaf [15]): 0 (0-24% inhibition) | post-emergent herbicidal activity index (Canada thistle [16]): 0 (0-24% inhibition) | post-emergent herbicidal activity index (Quackgrass [17]): 0 (0-24% inhibition) | herbicidal rating (% inhibition) (Cocklebur [1]): 0 (0-24) | herbicidal rating (% inhibition) (Pennsylvania Smartweed [18]): 0 (0-24) | herbicidal rating (% inhibition) (Rhizome Johnsongrass [19]): 0 (0-24) | herbicidal rating (% inhibition) (Morningglory [2]): 0 (0-24) | herbicidal rating (% inhibition) (Yellow Nutsedge [3]): 0 (0-24) | herbicidal rating (% inhibition) (Downy Brome [4]): 0 (0-24) | herbicidal rating (% inhibition) (Velvetleaf [5]): 0 (0-24) | herbicidal rating (% inhibition) (Canada thistle [20]): 0 (0-24) | herbicidal rating (% inhibition) (Common Lambsquarters [21]): 0 (0-24) | herbicidal rating (% inhibition) (Quackgrass [22]): 0 (0-24) | herbicidal rating (% inhibition) (Barnyardgrass [6]): 0 (0-24)

COc1nc(C(F)(F)F)c(CO)c(CC(C)C)c1C(=O)SC [Compound 134, 3-pyridinecarbothioic acid, 5-(hydroxymethyl)-2-methoxy-4-(2-methylpropyl)-6-(trifluoromethyl)-, S-methyl ester]
inhibition at 11200 g/ha (Annual Bluegrass): 75 to 100% | inhibition at 11200 g/ha (Wild Buckwheat): 0 to 24% | inhibition at 11200 g/ha (Indian Mustard): 25 to 49% | inhibition at 11200 g/ha (Seedling Johnsongrass): 0 to 24% | inhibition at 11200 g/ha (Cocklebur [1]): 0 to 24% | inhibition at 11200 g/ha (Morningglory [2]): 0 to 24% | inhibition at 11200 g/ha (Yellow Nutsedge [3]): 0 to 24% | inhibition at 11200 g/ha (Downy Brome [4]): 0 to 24% | inhibition at 11200 g/ha (Velvetleaf [5]): 50 to 74% | inhibition at 11200 g/ha (Barnyardgrass [6]): 75 to 100%

COc1nc(C(F)(F)F)c(C2OCCCO2)c(CC(C)C)c1C(=O)SC [Compound 136, 3-pyridinecarbothioic acid, 5-(1,3-dioxan-2-yl)-2-methoxy-4-(2-methylpropyl)-6-(trifluoromethyl)-, S-methyl ester]
inhibition at 11200 g/ha (Annual Bluegrass): 75 to 100% | inhibition at 11200 g/ha (Wild Buckwheat): 75 to 100% | inhibition at 11200 g/ha (Indian Mustard): 75 to 100% | inhibition at 11200 g/ha (Seedling Johnsongrass): 75 to 100% | inhibition at 11200 g/ha (Cocklebur [1]): 50 to 74% | inhibition at 11200 g/ha (Morningglory [2]): 50 to 74% | inhibition at 11200 g/ha (Yellow Nutsedge [3]): 25 to 49% | inhibition at 11200 g/ha (Downy Brome [4]): 75 to 100% | inhibition at 11200 g/ha (Velvetleaf [5]): 50 to 74% | inhibition at 11200 g/ha (Barnyardgrass [6]): 75 to 100%
